Legend:
Format in all cases: in vivo
Tetranychus urticae [1] = test: Test Example 1: foliar spray on kidney bean leaves carrying Tetranychus urticae adults, insect death rate; details: etoxazole 0.000781 ppm alone, 2 days after treatment
Protocol: (§1) Kidney beans (Nagauzura saitou) were planted (one plant per container) in plastic containers (volume: 90 ml) and grown until the primary leaves had fully expanded. Only one leaf of each kidney bean plant was left on the plant and all the other leaves were removed from the plant. Then, 5 adults of Tetranychus urticae were released on each leaf.
(§2) A suspension concentrate containing 10.0% by weight of etoxazole [product name: Baroque (registered trademark) flowable, manufactured by Kyoyu Agri Co., Ltd.] was diluted with water containing 0.02% by volume of a spreading agent [product name: Sindain (registered trademark), manufactured by Sumitomo Chemical Co., […]
(§3) A reference standard containing 99.9% by weight of fenazaquin was diluted with water containing 0.02% by volume of a spreading agent [product name: Sindain (registered trademark), manufactured by Sumitomo Chemical Co., Ltd.] so that the concentration of fenazaquin became 50 ppm. […]
Three days after the release of the insects, each test solution was sprayed onto the leaves of kidney bean plants and the leaves were air-dried. […] An insect death rate was calculated according to the following equation. […]

Tetranychus urticae [2] = test: Test Example 2: foliar spray on kidney bean leaves carrying Tetranychus urticae adults, insect death rate; details: etoxazole 0.8 ppm alone, 3 days after treatment
Protocol: as §1, with “10” for “5”
as §2, §3
Four days after the release of the insects, each test solution was sprayed onto the leaves of kidney bean plants and the leaves were air-dried. […] An insect death rate was calculated according to the following equation. […]

Bemisia tabaci = test: Test Example 3: spray on cabbage seedlings carrying Bemisia tabaci, insect death rate; details: 2 days after treatment
Protocol: Cabbages (Green ball) were planted (one plant per container) in plastic containers (volume: 90 ml) and grown until the third to fourth leaf stage. Only one leaf of each cabbage plant was left on the plant and all the other leaves were removed from the plant. The plastic containers were put into a net cage containing a lot of living Bemisia tabaci and allowed to stand for 24 hours. After that, the plastic containers were taken out from the cage and the number of living insects (Bemisia tabaci) on the cabbage seedlings was determined (This is called the “number of insects before treatment”).
A suspension concentrate containing 10.0% by weight of etoxazole [product name: Baroque (registered trademark) flowable, manufactured by Kyoyu Agri Co., Ltd.] was diluted with water containing 0.02% by volume of a spreading agent [product name: Sindain (registered trademark), manufactured by Sumitomo Chemical Co., Ltd.] so that the concentration of etoxazole became 800 ppm.
A reference standard containing 99.9% by weight of fenazaquin was diluted with water containing 0.02% by volume of a spreading agent [product name: Sindain (registered trademark), manufactured by Sumitomo Chemical Co., Ltd.] so that the concentration of fenazaquin became 50 ppm.
The water dilution of etoxazole, the water dilution of fenazaquin, and water containing 0.02% by volume of a spreading agent [product name: Sindain (registered trademark), manufactured by Sumitomo Chemical Co., Ltd.] were mixed to prepare a test solution with a predetermined concentration of etoxazole and/or fenazaquin.
Then, each test solution was sprayed onto the plastic containers to sufficiently soak cabbage seedlings, and allowed to stand for room temperature (about 25° C.). Two days after the treatment, the number of living insects (Bemisia tabaci) on the cabbage seedlings was determined (This is called the “number of insects after treatment”).
An insect death rate was calculated according to the following equation. For each treatment there are duplicates. […]

**Q.** How did the “Insect death rate (%)” value (Tetranychus urticae [1]) turn out when `CCOc1cc(C(C)(C)C)ccc1C1COC(c2c(F)cccc2F)=N1` (centres unmarked) [Etoxazole, 2-(2,6-difluorophenyl)-4-[4-(1,1-dimethylethyl)-2-ethoxyphenyl]-4,5-dihydrooxazole] was run?
**A.** The value was 10%.

**Q.** And the “Insect death rate (%)” value (Tetranychus urticae [2])?
**A.** Its value is 15%.

**Q.** And the “Insect death rate (%)” value (Bemisia tabaci; etoxazole 50 ppm alone)?
**A.** Its value is 15%.

**Q.** What about the “Insect death rate (%)” value (Bemisia tabaci; etoxazole 200 ppm alone) of the same compound?
**A.** The value was 17%.

**Q.** And the “Insect death rate (%)” value (Bemisia tabaci; etoxazole 800 ppm alone)?
**A.** Its value is 32%.
